Measurements reported in US12240844B2 (Voronoi, Inc., priority 2019, dated 2025).

Key:
ALK (L1196M) = molecular target: T1, ALK (L1196M) (Homo sapiens, UniProt Q9UM73, L1196M); assay: scanMAX Kinase panel (DiscoverX), % control; assay type: binding; details: <35% = active
T1 construct: purchased DiscoverX
Outline: (§1)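 Compounds were dissolved in DMSO and applied to the kinase panel at 1 uM. Binding was then expressed as % control against DMSO (100%) and a positive control (0%). Finally, any enzyme with % control under 35% was judged active.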

DYRK2 = molecular target: T2, DYRK2 (Homo sapiens, UniProt Q92630); assay: scanMAX Kinase panel (DiscoverX), % control; assay type: binding; details: <35% = active
T2 construct: purchased DiscoverX
T2 sequence (Q92630 1-601): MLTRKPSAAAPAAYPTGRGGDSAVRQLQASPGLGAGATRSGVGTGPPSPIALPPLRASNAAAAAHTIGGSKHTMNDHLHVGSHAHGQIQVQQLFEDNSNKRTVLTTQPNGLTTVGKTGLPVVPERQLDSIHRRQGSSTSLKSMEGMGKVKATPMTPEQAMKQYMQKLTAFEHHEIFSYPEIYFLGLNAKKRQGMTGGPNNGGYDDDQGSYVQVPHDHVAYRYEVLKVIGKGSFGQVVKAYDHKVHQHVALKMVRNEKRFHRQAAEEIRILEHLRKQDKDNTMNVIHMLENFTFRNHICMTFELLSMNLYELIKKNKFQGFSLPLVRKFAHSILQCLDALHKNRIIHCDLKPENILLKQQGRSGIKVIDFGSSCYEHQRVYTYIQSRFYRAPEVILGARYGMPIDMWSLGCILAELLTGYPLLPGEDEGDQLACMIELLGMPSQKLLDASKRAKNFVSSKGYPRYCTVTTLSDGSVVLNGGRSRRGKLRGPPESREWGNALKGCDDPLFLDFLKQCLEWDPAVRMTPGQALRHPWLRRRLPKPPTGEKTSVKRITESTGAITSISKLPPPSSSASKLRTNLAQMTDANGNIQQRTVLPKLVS
Outline: as §1

GAK = molecular target: T3, GAK (Homo sapiens, UniProt O14976); assay: scanMAX Kinase panel (DiscoverX), % control; assay type: binding; details: <35% = active
T3 construct: purchased DiscoverX
T3 sequence (O14976 1-1311): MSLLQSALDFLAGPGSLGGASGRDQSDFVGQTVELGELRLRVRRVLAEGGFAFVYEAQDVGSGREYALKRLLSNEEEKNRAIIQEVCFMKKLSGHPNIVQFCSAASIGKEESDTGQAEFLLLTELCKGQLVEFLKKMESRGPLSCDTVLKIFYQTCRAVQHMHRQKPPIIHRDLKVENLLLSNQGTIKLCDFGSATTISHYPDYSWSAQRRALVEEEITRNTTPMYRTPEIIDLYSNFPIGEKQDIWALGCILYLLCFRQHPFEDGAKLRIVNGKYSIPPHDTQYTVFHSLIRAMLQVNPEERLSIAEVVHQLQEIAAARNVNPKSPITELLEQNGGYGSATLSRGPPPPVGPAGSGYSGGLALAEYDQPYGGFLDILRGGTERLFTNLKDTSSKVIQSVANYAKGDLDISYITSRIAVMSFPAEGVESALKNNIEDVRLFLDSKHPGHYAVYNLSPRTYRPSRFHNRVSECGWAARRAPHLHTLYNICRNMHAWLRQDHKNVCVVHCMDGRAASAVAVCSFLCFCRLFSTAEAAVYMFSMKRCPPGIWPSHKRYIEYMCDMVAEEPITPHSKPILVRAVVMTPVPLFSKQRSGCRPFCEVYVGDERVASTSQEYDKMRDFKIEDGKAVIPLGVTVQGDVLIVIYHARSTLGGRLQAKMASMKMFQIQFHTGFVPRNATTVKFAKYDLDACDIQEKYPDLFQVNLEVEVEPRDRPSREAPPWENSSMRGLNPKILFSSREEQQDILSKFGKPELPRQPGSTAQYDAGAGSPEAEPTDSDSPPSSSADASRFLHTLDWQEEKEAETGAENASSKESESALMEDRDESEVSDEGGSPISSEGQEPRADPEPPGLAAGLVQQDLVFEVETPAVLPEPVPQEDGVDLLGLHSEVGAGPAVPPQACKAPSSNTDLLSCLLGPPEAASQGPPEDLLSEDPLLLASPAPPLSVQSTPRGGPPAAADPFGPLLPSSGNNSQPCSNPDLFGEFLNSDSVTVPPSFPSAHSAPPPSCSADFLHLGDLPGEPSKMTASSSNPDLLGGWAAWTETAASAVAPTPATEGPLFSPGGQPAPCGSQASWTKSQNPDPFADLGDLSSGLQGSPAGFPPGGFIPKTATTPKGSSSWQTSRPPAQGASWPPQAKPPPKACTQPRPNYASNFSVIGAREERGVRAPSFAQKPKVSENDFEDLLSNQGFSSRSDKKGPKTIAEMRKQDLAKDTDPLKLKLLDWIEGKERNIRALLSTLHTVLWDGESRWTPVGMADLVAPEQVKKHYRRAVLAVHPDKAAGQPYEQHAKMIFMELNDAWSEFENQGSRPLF
Outline: as §1

CLK2 = molecular target: T4, CLK2 (Homo sapiens, UniProt P49760); assay: scanMAX Kinase panel (DiscoverX), % control; assay type: binding; details: <35% = active
T4 construct: purchased DiscoverX
T4 sequence (P49760 whole entry): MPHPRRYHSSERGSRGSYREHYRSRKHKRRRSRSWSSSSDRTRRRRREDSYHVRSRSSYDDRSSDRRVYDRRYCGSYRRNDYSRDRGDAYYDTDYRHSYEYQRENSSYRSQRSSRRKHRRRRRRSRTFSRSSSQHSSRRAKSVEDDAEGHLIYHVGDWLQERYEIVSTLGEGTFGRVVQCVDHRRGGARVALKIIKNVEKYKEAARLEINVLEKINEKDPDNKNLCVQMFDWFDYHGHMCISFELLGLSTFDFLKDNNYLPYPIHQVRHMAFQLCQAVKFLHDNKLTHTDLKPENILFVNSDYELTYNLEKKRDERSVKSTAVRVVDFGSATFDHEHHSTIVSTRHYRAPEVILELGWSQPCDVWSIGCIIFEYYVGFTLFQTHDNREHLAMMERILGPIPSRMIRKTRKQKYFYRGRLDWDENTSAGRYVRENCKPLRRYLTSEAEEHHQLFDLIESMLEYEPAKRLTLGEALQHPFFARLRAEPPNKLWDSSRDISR
Outline: as §1

TNF-α = TNF-α secretion inhibition in LPS-treated THP-1 cells (ELISA); assay type: cell-based; details: Homo sapiens, compound 0.5 μM, LPS 500 ng/ml, 24 hours, read-out: THP-1/TNF-a (% inhib)
Outline: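 Human monocytic THP-1 cells were pre-cultured 16 h at 37° C., then treated with compound at 0.5 μM final, followed by LPS at 500 ng/ml final. After 24 h, IL-6 and TNF-α in culture supernatant were quantified by ELISA with absorbance read at 450 nm.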

THP-1 = THP-1 GI50 (Table 4, method not given); assay type: cell-based; details: Homo sapiens; THP-1 cells

T1 sequence (Q9UM73 19-1620 L1196M): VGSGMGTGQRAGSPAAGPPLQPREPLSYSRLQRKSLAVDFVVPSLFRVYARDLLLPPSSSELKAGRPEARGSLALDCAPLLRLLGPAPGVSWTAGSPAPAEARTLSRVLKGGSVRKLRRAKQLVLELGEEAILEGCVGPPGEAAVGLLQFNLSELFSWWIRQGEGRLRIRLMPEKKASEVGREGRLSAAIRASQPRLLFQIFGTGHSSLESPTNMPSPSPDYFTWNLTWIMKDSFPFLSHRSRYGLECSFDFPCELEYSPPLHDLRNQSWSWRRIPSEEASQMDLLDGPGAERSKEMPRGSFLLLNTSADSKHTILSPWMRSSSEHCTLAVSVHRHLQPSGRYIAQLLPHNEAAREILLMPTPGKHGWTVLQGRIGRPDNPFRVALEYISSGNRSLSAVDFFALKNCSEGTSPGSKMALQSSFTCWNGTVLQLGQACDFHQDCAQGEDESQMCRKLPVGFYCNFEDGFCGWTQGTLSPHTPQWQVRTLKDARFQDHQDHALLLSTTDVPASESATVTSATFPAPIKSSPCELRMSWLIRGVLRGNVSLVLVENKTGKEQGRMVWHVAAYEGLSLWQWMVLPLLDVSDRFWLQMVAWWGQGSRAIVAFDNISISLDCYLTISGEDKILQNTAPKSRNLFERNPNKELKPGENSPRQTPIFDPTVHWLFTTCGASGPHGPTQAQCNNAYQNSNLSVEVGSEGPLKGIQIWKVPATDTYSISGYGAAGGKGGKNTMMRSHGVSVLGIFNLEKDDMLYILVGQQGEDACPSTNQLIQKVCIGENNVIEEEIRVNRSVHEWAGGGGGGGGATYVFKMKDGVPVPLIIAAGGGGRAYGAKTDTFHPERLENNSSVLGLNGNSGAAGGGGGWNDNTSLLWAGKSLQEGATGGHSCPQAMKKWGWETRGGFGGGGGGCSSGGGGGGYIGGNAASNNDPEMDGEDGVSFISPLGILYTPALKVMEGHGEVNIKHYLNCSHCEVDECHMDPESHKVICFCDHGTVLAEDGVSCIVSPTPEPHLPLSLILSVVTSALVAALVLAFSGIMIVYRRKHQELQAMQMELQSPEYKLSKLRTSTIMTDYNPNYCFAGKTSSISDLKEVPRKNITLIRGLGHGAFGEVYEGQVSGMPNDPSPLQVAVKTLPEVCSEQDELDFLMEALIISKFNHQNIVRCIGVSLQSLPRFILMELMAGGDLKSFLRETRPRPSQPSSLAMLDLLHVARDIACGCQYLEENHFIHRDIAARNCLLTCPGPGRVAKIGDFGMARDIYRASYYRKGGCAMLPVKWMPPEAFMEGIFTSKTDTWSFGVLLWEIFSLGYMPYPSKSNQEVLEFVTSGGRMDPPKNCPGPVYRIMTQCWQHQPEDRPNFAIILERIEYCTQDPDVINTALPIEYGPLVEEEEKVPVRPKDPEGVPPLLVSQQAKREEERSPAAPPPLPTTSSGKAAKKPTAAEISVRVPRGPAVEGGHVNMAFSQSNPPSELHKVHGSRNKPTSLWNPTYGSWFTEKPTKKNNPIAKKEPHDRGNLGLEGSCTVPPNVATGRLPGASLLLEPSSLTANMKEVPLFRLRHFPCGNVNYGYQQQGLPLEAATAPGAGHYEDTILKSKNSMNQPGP

Row | remaining binding at 1 µM (ALK (L1196M)) [%] | remaining binding at 1 µM (DYRK2) [%] | remaining binding at 1 µM (GAK) [%] | remaining binding at 1 µM (CLK2) [%] | GI50 (THP-1) [µM] | Compound | inhibition at 0.5 µM (TNF-α) [%]
1 | 58 | 89 | 27 | 0.25 | – | O=C(c1ccc(Nc2cc(C3CC3)c3c(C(F)(F)F)c[nH]c3n2)c2c1CCO2)N1CC[C@@H](N2CCOCC2)C1 [Example 238, (R)-(7-((4-cyclopropyl-3-(trifluoromethyl)-1H-pyrrolo[2,3-b]pyridin-6-yl)amino)-2,3-dihydrobenzofuran-4-yl)(3-morpholinopyrrolidin-1-yl)methanone] | –
2 | 18 | 9.7 | 9.9 | 0.55 | – | CNc1cc(Nc2ccc(C(=O)N3CC[C@H](N4CCOCC4)C3)c3c2OCC3)nc2[nH]cc(C(F)(F)F)c12 [Example 217, (S)-(7-((4-(methylamino)-3-(trifluoromethyl)-1H-pyrrolo[2,3-b]pyridin-6-yl)amino)-2,3-dihydrobenzofuran-4-yl)(3-morpholinopyrrolidin-1-yl)methanone] | –
3 | 28 | 18 | 12 | 8.2 | – | O=C(c1ccc(Nc2cc(C3CC3)c3c(C(F)(F)F)c[nH]c3n2)c2c1OCCO2)N1CCC(N2CCOCC2)CC1 [Example 221, (8-((4-cyclopropyl-3-(trifluoromethyl)-1H-pyrrolo[2,3-b]pyridin-6-yl)amino)-2,3-dihydrobenzo [b] [1,4]dioxin-5-yl)(4-morpholinopiperidin-1-yl)methanone] | –
4 | 15 | 62 | 15 | 0 | – | O=C(c1ccc(Nc2cc(C3CC3)c3c(C(F)(F)F)c[nH]c3n2)c2c1CCO2)N1CC[C@H](N2CCOCC2)C1 [Example 237, (S)-(7-((4-cyclopropyl-3-(trifluoromethyl)-1H-pyrrolo[2,3-b]pyridin-6-yl)amino)-2,3-dihydrobenzofuran-4-yl)(3-morpholinopyrrolidin-1-yl)methanone] | –
5 | 23 | 45 | 29 | 3.1 | – | CCNc1cc(Nc2ccc(P3(=O)CCN(C4CC4)CC3)cc2OC)nc2[nH]cc(C(F)(F)F)c12 [Example 206, 1-cyclopropyl-4-(4-((4-(ethylamino)-3-(trifluoromethyl)-1H-pyrrolo[2,3-b]pyridin-6-yl)amino)-3-methoxyphenyl)-1,4-azaphosphinane 4-oxide] | –

The remaining lines, values behind:

Row | Compound | remaining binding at 1 µM (ALK (L1196M)) [%] | remaining binding at 1 µM (DYRK2) [%] | remaining binding at 1 µM (GAK) [%] | remaining binding at 1 µM (CLK2) [%] | GI50 (THP-1) [µM] | inhibition at 0.5 µM (TNF-α) [%]
6 | CCNc1cc(Nc2ccc(S(=O)(=O)N3CCC(N4CCOCC4)CC3)c3c2OCCO3)nc2[nH]cc(C(F)(F)F)c12 [Example 96, N^4-ethyl-N^6-(8-((4-morpholonopiperidin-1-yl)sulfonyl)-2,3-dihydrobenzo [b] [1,4]dioxin-5-yl)-3-(trifluoromethyl)-1H-pyrrolo[2,3-b]pyridine-4,6-diamine] | 28 | 21 | 14 | 1.2 | – | –
7 | CCNc1cc(Nc2ccc(C(=O)N3C[C@@H]4C[C@H]3CO4)c3c2OCCO3)nc2[nH]cc(C(F)(F)F)c12 [Example 44, ((1S,4S)-2-oxa-5-azabicyclo[2.2.1]heptan-5-yl)(8-((4-(ethylamino)-3-(trifluoromethyl)-1H-pyrrolo[2,3-b]pyridin-6-yl)amino)-2,3-dihydrobenzo[b] [1,4]dioxin-5-yl)methanone] | – | – | – | – | 146 | 100
8 | CCNc1cc(Nc2ccc(P3(=O)CCN(C(C)=O)CC3)cc2OC)nc2[nH]cc(C(F)(F)F)c12 [Example 42, 1-(4-(4-((4-(ethylamino)-3-(trifluoromethyl)-1H-pyrrolo[2,3-b]pyridin-6-yl)amino)-3-methoxyphenyl)-4-oxido-1,4-azaphosphinan-1-yl)ethan-1-one] | – | – | – | – | 16.3 | 35.7
9 | CCNc1cc(Nc2ccc(C(=O)N3CCC(N4CCOCC4)CC3)c3c2OCO3)nc2[nH]cc(C(F)(F)F)c12 [Example 37, (7-((4-(ethylamino)-3-(trifluoromethyl)-1H-pyrrolo[2,3-b]pyridin-6-yl)amino)benzo[d][1,3]dioxol-4-yl)(4-morpholinopiperidin-1-yl)methanone] | – | – | – | – | 14.4 | 100
10 | CNc1cc(Nc2ccc(S(=O)(=O)N3CCC(N4CCOCC4)CC3)cc2OC)nc2[nH]cc(C(F)(F)F)c12 [Example 184, N^6-(2-methoxy-4-((4-morpholinopiperidin-1-yl)sulfonyl)phenyl)-N^4-methyl-3-(trifluoromethyl)-1H-pyrrolo[2,3-b]pyridine-4,6-diamine] | 23 | 14 | 27 | 0.3 | – | –
11 | CCCNc1cc(Nc2ccc(C(=O)N3CCC(N4CCOCC4)CC3)c3c2OCCO3)nc2[nH]cc(C(F)(F)F)c12 [Example 162, (4-morpholinopiperidin-1-yl)(8-((4-(propylamino)-3-(trifluoromethyl)-1H-pyrrolo[2,3-b]pyridin-6-yl)amino)-2,3-dihydrobenzo[b] [1,4]dioxin-5-yl)methanone] | 1.3 | 20 | 6.3 | 0.65 | – | –
12 | CNc1cc(Nc2ccc(C(=O)N3CCC(N4CCOCC4)CC3)c3c2OCCO3)nc2[nH]cc(C(F)(F)F)c12 [Example 160, (8-((4-(methylamino)-3-(trifluoromethyl)-1H-pyrrolo[2,3-b]pyridin-6-yl)amino)-2,3-dihydrobenzo [b] [1,4]dioxin-5-yl)(4-morpholinopiperidin-1-yl)methanone] | 1.3 | 20 | 6.3 | 0.65 | – | –
13 | CCNc1cc(Nc2ccc(C(=O)N3CCC(N4C[C@@H]5C[C@H]4CO5)CC3)c3c2OCC3)nc2[nH]cc(C(F)(F)F)c12 [Example 105, (4-((1S,4S)-2-oxa-5-azabicyclo[2.2.1]heptan-5-yl)piperidin-1-yl)(7-((4-(ethylamino)-3-(trifluoromethyl)-1H-pyrrolo[2,3-b]pyridin-6-yl)amino)-2,3-dihydrobenzofuran-4-yl)methanone] | 2.3 | 8 | 4.8 | 0.35 | – | 1.7
